Data published in US7351732B2, “Cycloalkanedione derivatives, method for the production thereof and their pharmacological applications” (Schwarz Pharma S.L., priority 2002, dated 2008).
Counter-ions that a name gives are not always drawn. Like-named read-outs stand apart in the source and are kept apart here.

Key:
5-HT1A = biological target: T1, 5-HT1A (Rattus norvegicus, UniProt P19327); assay: Radioligand displacement, 5-HT1A receptors, [3H]-8-OH-DPAT; format: binding; set-up: (a) 5-HT1A receptors, [^3H]-8-OH-DPAT, rat cerebral cortex; from tissue; host or cells: rat cerebral cortex; conditions: rat cerebral cortex, read-out: Ki ± E.E. 5-HT1A
T1 sequence (P19327 1-422): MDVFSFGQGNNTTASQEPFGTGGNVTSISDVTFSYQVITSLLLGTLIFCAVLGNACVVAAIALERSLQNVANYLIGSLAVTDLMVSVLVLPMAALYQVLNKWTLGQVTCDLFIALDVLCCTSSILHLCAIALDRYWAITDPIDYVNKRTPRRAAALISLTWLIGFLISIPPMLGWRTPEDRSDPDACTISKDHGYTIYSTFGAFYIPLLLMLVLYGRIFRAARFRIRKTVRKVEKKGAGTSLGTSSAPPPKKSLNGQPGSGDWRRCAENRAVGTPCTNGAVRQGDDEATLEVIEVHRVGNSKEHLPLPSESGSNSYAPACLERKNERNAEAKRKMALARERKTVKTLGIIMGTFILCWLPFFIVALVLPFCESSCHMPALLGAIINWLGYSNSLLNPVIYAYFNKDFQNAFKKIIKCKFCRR

5-HT2A receptors = biological target: T2, 5-HT2A receptors (Rattus norvegicus, UniProt P14842); assay: Radioligand displacement, 5-HT2A receptors, [3H]ketanserin; format: binding; conditions: rat cerebral cortex, read-out: Ki ± E.E. 5-HT2A
T2 construct: (b) 5-HT2A receptors, [^3H]ketanserin, rat cerebral cortex; from tissue; host or cells: rat cerebral cortex

5-HT7 receptors = biological target: T3, 5-HT7 receptors (Rattus norvegicus, UniProt P32305); assay: Radioligand displacement, 5-HT7 receptors, [3H]-5-CT; format: binding; conditions: read-out: Ki ± E.E. 5-HT7
T3 construct: (e) 5-HT7 receptors, [^3H]-5-CT, rat hypothalamus; from tissue; host or cells: rat hypothalamus

5-HT4 receptors = biological target: T4, 5-HT4 receptors (Rattus norvegicus, UniProt Q62758); assay: Radioligand displacement, 5-HT4 receptors, [3H]GR 113808; format: binding; conditions: [3H]GR 113808, rat striatum; read-out: Ki ± E.E. 5-HT4
T4 construct: (d) 5-HT4 receptors, [^3H]GR 113808, rat striatum; from tissue; host or cells: rat striatum

α1 receptors = assay: Radioligand displacement, α1 receptors, [3H]prazosin; format: binding; conditions: rat cerebral cortex, read-out: Ki ± E.E. α1
D2 receptors = biological target: T5, D2 receptors (Rattus norvegicus, UniProt P61169); assay: Radioligand displacement, D2 receptors, [3H]spiperone; format: binding; conditions: rat striatum, read-out: Ki ± E.E. D2
T5 construct: (g) D2 receptors, [^3H]spiperone, rat striatum; from tissue; host or cells: rat striatum

5-HT3 receptors = biological target: T6, 5-HT3 receptors (Rattus norvegicus, UniProt P35563); assay: Radioligand displacement, 5-HT3 receptors, [3H]LY 278584; format: binding; conditions: [3H]LY 278584, rat cerebral cortex; read-out: Ki ± E.E. 5-HT3
T6 construct: (c) 5-HT3 receptors, [^3H]LY 278584, rat cerebral cortex; from tissue; host or cells: rat cerebral cortex
T6 sequence (P35563 24-483): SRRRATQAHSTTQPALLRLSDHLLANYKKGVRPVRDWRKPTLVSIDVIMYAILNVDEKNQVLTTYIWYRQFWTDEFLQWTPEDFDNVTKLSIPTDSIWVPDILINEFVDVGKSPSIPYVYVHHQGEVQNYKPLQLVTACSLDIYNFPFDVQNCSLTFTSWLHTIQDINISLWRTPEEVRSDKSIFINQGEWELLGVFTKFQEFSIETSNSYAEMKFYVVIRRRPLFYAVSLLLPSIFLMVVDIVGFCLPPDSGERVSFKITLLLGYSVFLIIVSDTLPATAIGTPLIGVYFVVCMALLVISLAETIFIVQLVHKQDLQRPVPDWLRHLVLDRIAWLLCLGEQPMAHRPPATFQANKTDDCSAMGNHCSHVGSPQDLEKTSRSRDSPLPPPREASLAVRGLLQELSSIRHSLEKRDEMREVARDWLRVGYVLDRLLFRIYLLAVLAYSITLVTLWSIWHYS

T5 sequence (P61169 whole entry): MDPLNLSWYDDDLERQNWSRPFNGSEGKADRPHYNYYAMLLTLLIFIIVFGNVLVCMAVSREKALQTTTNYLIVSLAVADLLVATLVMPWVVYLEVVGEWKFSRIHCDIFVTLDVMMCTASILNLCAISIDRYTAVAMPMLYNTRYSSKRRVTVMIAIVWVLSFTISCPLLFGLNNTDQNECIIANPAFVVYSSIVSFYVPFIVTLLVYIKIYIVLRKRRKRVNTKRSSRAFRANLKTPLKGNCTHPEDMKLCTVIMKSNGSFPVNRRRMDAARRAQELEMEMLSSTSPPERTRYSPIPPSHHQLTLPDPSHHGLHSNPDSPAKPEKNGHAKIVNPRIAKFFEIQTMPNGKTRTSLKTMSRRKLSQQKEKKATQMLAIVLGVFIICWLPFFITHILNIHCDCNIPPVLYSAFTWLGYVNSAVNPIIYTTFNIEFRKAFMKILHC
T3 sequence (P32305 whole entry): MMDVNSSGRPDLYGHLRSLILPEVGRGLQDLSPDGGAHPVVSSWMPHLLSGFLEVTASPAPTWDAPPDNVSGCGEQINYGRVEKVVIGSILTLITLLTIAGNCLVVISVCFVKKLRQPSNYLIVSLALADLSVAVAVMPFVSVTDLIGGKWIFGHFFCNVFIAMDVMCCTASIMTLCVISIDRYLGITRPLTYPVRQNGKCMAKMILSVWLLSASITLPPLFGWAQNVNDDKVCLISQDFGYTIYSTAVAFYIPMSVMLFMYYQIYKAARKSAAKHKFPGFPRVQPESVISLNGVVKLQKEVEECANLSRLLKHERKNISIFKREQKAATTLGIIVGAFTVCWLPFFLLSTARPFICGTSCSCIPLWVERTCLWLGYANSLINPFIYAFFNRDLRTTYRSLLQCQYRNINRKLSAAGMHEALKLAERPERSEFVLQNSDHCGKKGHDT
T4 sequence (Q62758 whole entry): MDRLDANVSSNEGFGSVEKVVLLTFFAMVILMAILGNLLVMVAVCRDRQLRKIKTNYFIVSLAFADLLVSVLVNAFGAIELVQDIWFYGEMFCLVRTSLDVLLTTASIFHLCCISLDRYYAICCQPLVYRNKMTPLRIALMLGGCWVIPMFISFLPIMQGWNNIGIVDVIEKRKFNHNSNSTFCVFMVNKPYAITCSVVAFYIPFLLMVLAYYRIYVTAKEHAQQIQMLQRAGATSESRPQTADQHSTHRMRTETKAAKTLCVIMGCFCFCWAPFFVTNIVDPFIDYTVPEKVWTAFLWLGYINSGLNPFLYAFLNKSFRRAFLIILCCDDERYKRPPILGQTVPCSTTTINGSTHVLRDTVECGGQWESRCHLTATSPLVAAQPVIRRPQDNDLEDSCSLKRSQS
T2 sequence (P14842 whole entry): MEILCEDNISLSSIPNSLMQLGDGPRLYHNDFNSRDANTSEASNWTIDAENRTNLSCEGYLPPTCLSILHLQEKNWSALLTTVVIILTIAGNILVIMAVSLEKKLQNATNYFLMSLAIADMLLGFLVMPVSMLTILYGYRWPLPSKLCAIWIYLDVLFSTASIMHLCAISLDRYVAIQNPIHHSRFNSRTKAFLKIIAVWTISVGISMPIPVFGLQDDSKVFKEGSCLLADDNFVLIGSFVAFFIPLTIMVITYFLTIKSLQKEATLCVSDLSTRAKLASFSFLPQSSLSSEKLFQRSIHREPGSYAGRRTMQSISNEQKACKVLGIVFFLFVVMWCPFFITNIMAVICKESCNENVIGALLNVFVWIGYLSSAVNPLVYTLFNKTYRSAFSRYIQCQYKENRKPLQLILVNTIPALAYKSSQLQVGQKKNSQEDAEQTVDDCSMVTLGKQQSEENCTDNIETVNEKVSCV

Compound	melting point [°C]	Ki (5-HT1A) [nM]	Ki (α1 receptors) [nM]	also measured
O=C1C2CCCN2C(=O)N1CCCCNCc1cccc2ccccc12 (stereo not shown) (as salt: hydrochloride) [Compound 7, 2-[4-[(Naphth-1-yl)methylamine]butyl]-1,3-dioxoperhydropyrrolo[1,2-c]imidazol]	150 to 153			
O=C1C2CCCN2C(=O)N1CCCCNCc1ccc2ccccc2c1 (stereo not shown) (as salt: hydrochloride) [Compound 8, 2-[4-[(Naphth-2-yl)methylamine]butyl]-1,3-dioxoperhydropyrrolo[1,2-c]imidazol]	125 to 127			
O=C1C2CCCN2C(=O)N1CCCCNCCc1cccc2ccccc12 (stereo not shown) (as salt: hydrochloride) [Compound 9, 2-[4-[2-(Naphth-1-yl)ethylamine]butyl]-1,3-dioxoperhydropyrrolo[1,2-c]imidazol]	95 to 97			
O=C1CSC(=O)N1CCCCNCCc1cccc2ccccc12 (as salt: hydrochloride) [Compound 10, 3-[4-[2-(Naphth-1-yl)ethylamine]butyl]-2,4-dioxothiazolidin]	128 to 129			
O=C1C2CCCN2C(=O)N1CCCCNCCc1ccc2ccccc2c1 (stereo not shown) (as salt: hydrochloride) [Compound 11, 2-[4-[2-(Naphth-2-yl)ethylamine]butyl]-1,3-dioxoperhydropyrrolo[1,2-c]imidazol]	130 to 132			
O=C1CSC(=O)N1CCCCNCCOc1ccccc1 (as salt: hydrochloride) [Compound 13, 3-[4-[2-(Phenoxy)ethylamine]butyl]-2,4-dioxothiazolidin]	173 to 174			
O=C1C2CCCN2C(=O)N1CCCCNCCOc1cccc2ccccc12 (stereo not shown) (as salt: hydrochloride) [Compound 14, 2-[4-[2-(Naphth-1-oxi)ethylamine]butyl]-1,3-dioxoperhydropyrrolo[1,2-c]imidazol]	163 to 164			
O=C1CSC(=O)N1CCCCNCCOc1cccc2ccccc12 (as salt: hydrochloride) [Compound 15, 3-[4-[2-(Naphth-1-oxi)ethylamine]butyl]-2,4-dioxothiazolidin]	149 to 151			
O=C1C2CCCN2C(=O)N1CCCCNCc1nc2ccccc2[nH]1 (stereo not shown) (as salt: hydrochloride) [Compound 16, 2-[4-[(Benzimidazol-2-yl)methylamine]butyl]-1,3-dioxoperhydropyrrolo[1,2-c]imidazol]	208 to 210			
COc1ccccc1CCNCCCCN1C(=O)C2CCCN2C1=O (stereo not shown) (as salt: hydrochloride) [Compound 18, 2-[4-[2-(o-Methoxyphenyl)ethylamine]butyl]-1,3-dioxoperhydropyrrolo[1,2-c]imidazol]	160 to 162			
O=C1C2SCCN2C(=O)N1CCCCNCC1CCc2ccccc2O1 (racemic) (as salt: hydrochloride) [Compound 2, (±)-2-[4-[(Chroman-2-yl)methylamine]butyl]-1,3-dioxoperhydroimidazo[1,5-b]thiazol]	149 to 151			
O=C1C2CSCN2C(=O)N1CCCCNCC1CCc2ccccc2O1 (racemic) (as salt: hydrochloride) [Compound 3, (±)-2-[4-[(Chroman-2-yl)methylamine]butyl]-1,3-dioxoperhydroimidazo[1,5-c]-thiazol]	142 to 144			
O=C1CSC(=O)N1CCCCCCNCC1CCc2ccccc2O1 (racemic) (as salt: hydrochloride) [Compound 6, (±)-3-[6-[(Chroman-2-yl)methylamine]hexyl]-2,4-dioxothiazolidin]	175 to 177			
O=C1CSC(=O)N1CCCCCNCC1CCc2ccccc2O1 (racemic) [Compound 5, (±)-3-[5-[(Chroman-2-yl)methylamine]pentyl]-2,4-dioxothiazolidin]		5.5 ± 0.4		
O=C1CSC(=O)N1CCCCCCNCC1CCc2ccccc2O1 (racemic) [Compound 6, (±)-3-[6-[(Chroman-2-yl)methylamine]hexyl]-2,4-dioxothiazolidin]		1.3 ± 0.2		
CN(C)CCCSc1ccccc1NC(=O)/C=C/c1ccccc1 [Cinanserine, reference compound]				Ki (5-HT2A receptors): 2.6 ± 0.4 nM
NCCc1c[nH]c2ccc(C(N)=O)cc12 [Compound 5-CT, 5-CT, reference compound]				Ki (5-HT7 receptors; [3H]-5-CT, rat hypothalamus): 1.8 ± 0.6 nM
O=C1C2CCCN2C(=O)N1CCCCNCc1cccc2ccccc12 (stereo not shown) [Compound 7, 2-[4-[(Naphth-1-yl)methylamine]butyl]-1,3-dioxoperhydropyrrolo[1,2-c]imidazol]			49.6 ± 2.9	Ki (5-HT2A receptors): > 1000 nM; Ki (5-HT4 receptors): > 10000 nM; Ki (5-HT7 receptors; [3H]-5-CT, rat hypothalamus): > 10000 nM; Ki (D2 receptors): > 10 µM
O=C1C2CCCN2C(=O)N1CCCCNCc1ccc2ccccc2c1 (stereo not shown) [Compound 8, 2-[4-[(Naphth-2-yl)methylamine]butyl]-1,3-dioxoperhydropyrrolo[1,2-c]imidazol]		51.01 ± 0.47		
CCCN(CCC)C1CCc2cccc(O)c2C1 (stereo not shown) [Compound 8-OH-DPAT, 8-OH-DPAT, reference compound]				Ki (5-HT7 receptors): 83.8 nM
O=C1C2CCCN2C(=O)N1CCCCNCCc1cccc2ccccc12 (stereo not shown) [Compound 9, 2-[4-[2-(Naphth-1-yl)ethylamine]butyl]-1,3-dioxoperhydropyrrolo[1,2-c]imidazol]		27.9 ± 3.1	> 1000	Ki (5-HT2A receptors): > 10000 nM; Ki (5-HT4 receptors): > 10000 nM; Ki (D2 receptors): > 10 µM
O=C1CSC(=O)N1CCCCNCCc1cccc2ccccc12 [Compound 10, 3-[4-[2-(Naphth-1-yl)ethylamine]butyl]-2,4-dioxothiazolidin]		15 ± 1	> 1000	Ki (5-HT2A receptors): > 1000 nM; Ki (5-HT3 receptors): > 1 µM; Ki (5-HT4 receptors): > 1000 nM; Ki (5-HT7 receptors; [3H]-5-CT, rat hypothalamus): > 10000 nM; Ki (D2 receptors): > 10 µM
O=C1C2CCCN2C(=O)N1CCCCNCCc1ccc2ccccc2c1 (stereo not shown) [Compound 11, 2-[4-[2-(Naphth-2-yl)ethylamine]butyl]-1,3-dioxoperhydropyrrolo[1,2-c]imidazol]		43.2 ± 4.5	99 ± 14	Ki (5-HT2A receptors): 157.3 ± 0.65 nM; Ki (5-HT3 receptors): > 10 µM; Ki (5-HT4 receptors): 594 ± 43.7 nM; Ki (5-HT7 receptors; [3H]-5-CT, rat hypothalamus): 74 ± 7.3 nM
O=C1CSC(=O)N1CCCCNCCOc1ccccc1 [Compound 13, 3-[4-[2-(Phenoxy)ethylamine]butyl]-2,4-dioxothiazolidin]		9.8 ± 0.7	26.9 ± 4.5	Ki (5-HT2A receptors): > 10000 nM; Ki (5-HT3 receptors): > 10 µM; Ki (5-HT4 receptors): > 1000 nM; Ki (5-HT7 receptors; [3H]-5-CT, rat hypothalamus): 55 ± 0.3 nM; Ki (D2 receptors): > 10 µM
O=C1CSC(=O)N1CCCCNCCOc1cccc2ccccc12 [Compound 15, 3-[4-[2-(Naphth-1-oxi)ethylamine]butyl]-2,4-dioxothiazolidin]		4.5 ± 0.2	54.7 ± 1.8	Ki (5-HT2A receptors): 38.5 ± 7.7 nM; Ki (5-HT3 receptors): > 10 µM; Ki (5-HT7 receptors; [3H]-5-CT, rat hypothalamus): 19.9 ± 0.8 nM; Ki (D2 receptors): > 1 µM
COc1ccccc1CNCCCCN1C(=O)C2CCCN2C1=O (stereo not shown) [Compound 17, 2-[4-[(o-Methoxyphenyl)methylamine]butyl]-1,3-dioxoperhydropyrrolo[1,2-c]imidazol]		> 10000	> 10000	
COc1ccccc1CCNCCCCN1C(=O)C2CCCN2C1=O (stereo not shown) [Compound 18, 2-[4-[2-(o-Methoxyphenyl)ethylamine]butyl]-1,3-dioxoperhydropyrrolo[1,2-c]imidazol]		868 ± 23.1	> 1000	Ki (5-HT2A receptors): > 10000 nM; Ki (5-HT4 receptors): > 10000 nM; Ki (D2 receptors): > 10 µM
Cc1ccc(N(CC2=NCCN2)c2cccc(O)c2)cc1 [Phentolamine, reference compound]			6.1 ± 0.1	
COc1cc(COc2cc(N)c(Cl)cc2C(=O)CCC2CCN(CCNS(C)(=O)=O)CC2)cc(OC)c1 [RS-39604, reference compound]				Ki (5-HT4 receptors): 3.9 ± 0.2 nM
